Experiments:
[1] = test system: streptozotocin (STZ)-induced diabetic neuropathy; experiment: STZ-induced diabetic neuropathy mouse model, initial studies (treatment after 8 weeks of diabetes); format: in vivo
Procedure: Physiological studies were performed in a diabetic mouse model to determine if KU-32 is suitable for further pre-clinical development. A mouse model of streptozotocin (STZ)-induced diabetic neuropathy was utilized. One such diabetic mouse model is described, for example, in Christianson et al., Neuroscience, 2007, 145 (1): 303-313. […] Thus, although the drug was capable of attenuating the decline in SNCV, a more powerful indicator of efficacy and clinical usefulness was desired to indicate the drug could reverse a pre-existing deficit in NCV. […] The study was therefore repeated with a larger trial size and under more stringent long-term diabetic conditions prior to weekly drug administration.

[2] = test system: Experimental Autoimmune Encephalomyelitis; EAE; experiment: Daily dosing in murine EAE multiple sclerosis model; format: in vivo, mice
Excerpt: In this example, female SJL/J mice (6-7 weeks old) were immunized with proteolipid protein (“PLP”) in CFA and pertussis toxin IV on day 0. The mice were boosted with PLP in IFA on day seven.

[3] = Phase-solubility of KU-32 in Captisol in water; format: physicochemical
Procedure: On day 12 of the study mice received 2, 5 or 10 mg/kg KU-32 by IP injection on a daily basis. KU-32 was formulated at all concentrations in 0.05 M Captisol®. To access the phase-solubility behavior of KU-32 in Captisol®, KU-32 in excess of its expected solubility were equilibrated with increasing concentrations of Captisol® in water. The suspensions were allowed to equilibrate at least 24-hours at 25° C., after which time the suspensions were centrifuged and the KU-32 concentration in the supernatant determined by RP-HPLC.

[4] = test system: neuregulin-induced demyelination; experiment: Cell culture model of myelinated nerve; format: cell-based
Excerpt: Diabetic peripheral neuropathy (DPN) results from the degeneration of nerves that transmit sensations from the legs and arms. Schwann cells are specialized cells that closely associate with many nerves and also undergo profound changes in DPN. Schwann cells are necessary to form the myelin membrane that is present on many peripheral nerves and the loss of this myelin membrane is a common characteristic of human diabetic neuropathy. Identifying molecular mechanisms that may prevent demyelination or enhance remyelination are therefore good targets for therapeutic interventions in human DPN. Altered neurotrophism in DPN is described in detail in, for example, Dobrowsky et al., JPET 313:485-491, 2005. Heat shock protein 90 inhibitors offer a potential therapeutic approach toward treating DPN. A cell culture model of myelinated nerve was used to identify new molecular targets that can prevent demyelination.

[5] = test system: EAE model; experiment: Single vs. weekly dosing in murine EAE MS model; format: in vivo, mice; conditions: single 20 mg/kg IP dose at onset of symptoms, first onset of disease (10-20 days)
Procedure: In this example, female SJL/J mice (6-7 weeks old) were immunized with proteolipid protein (“PLP”) in CFA and pertussis toxin IV on day 0. The mice were boosted with PLP in IFA on day seven. At the onset of symptoms, mice received either a single 20 mg/kg dose of KU-32 IP, weekly 2 mg/kg IP doses of KU-32, or no treatment. The mice were scored daily for severity of disease and body weight.

[6] = test system: streptozotocin (STZ)-induced diabetic neuropathy; experiment: STZ-induced diabetic neuropathy mouse model, second trial (treatment after 12 weeks of diabetes); format: in vivo
Procedure: In a second trial, mice were rendered diabetic for 12 weeks. Diabetes was induced in test mice by 3 injections of streptozotocin (STZ) (n=28), and control mice (n=28) received a vehicle injection. Nerve conduction velocity (NCV) was measured in 4 mice from each group after 12 weeks, prior to initiating KU-32 treatment, after which time they developed substantial deficits in MNCV and SNCV (FIG. 7). Asterisks indicates p<0.05 compared to the time matched control. Diabetic mice also developed a substantial mechanical hypoalgesia after 5 weeks (FIG. 8) and a rapid onset of a thermal hypoalgesia (FIG. 9). Thus, any improvements by KU-32 were considered to be indicative of reversibility of a pre-existing deficits and not prevention.
After 12 weeks of diabetes, mice received weekly doses of 20 mg/kg KU-32 or vehicle by IP injection, and thermal and mechanical hypoalgesia were monitored. […] The asterisk indicates p<0.05 compared to the time matched control. The carat indicates p<0.05 compared to 14 weeks of STZ-Veh. Animal numbers were n=28 for Veh-Veh and STZ-Veh up to 12 weeks. Group numbers were n=12 at initiation of KU-32 and its vehicle (Veh).
The asterisk indicates p<0.05 compared to the time matched control, and the carat indicates p<0.05 compared to 14 weeks of STZ-Veh. Animal numbers were n=28 for Veh-Veh and STZ-Veh up to 12 weeks. Group numbers were n=12 at initiation of KU-32 and its vehicle (Veh).
Importantly, a similar recovery was evident after 12 weeks of diabetes despite the onset in improvement requiring 4 weeks of treatment. The delay may relate to the more severe decline in the function of the smaller sensory fibers since treatment was not started until 12 weeks of diabetes. The diabetic mice were very ill after 16 weeks and therefore were terminated at this time. […] Since the deficits in mechanical and thermal hypoalgesia reached a plateau between 12-14 weeks, the measures at 14 weeks of diabetes were used to assess for statistical improvements in sensory function after 3 or more weeks of KU-32 treatment. […] Thus, KU-32 improves nerve function in the absence of an overall improvement in metabolic parameters related to diabetes, i.e., hyperglycemia and weight loss. The data provides solid proof-of-principle that KU-32 can effectively reverse pre-existing deficits in two sensory measures that are direct, clinically relevant, parallels of human symptoms.

[7] = test system: Hsp70; experiment: Hsp70 levels in mouse brain after KU-32 IP administration (Hsp70/actin densitometry); format: in vivo, mice; conditions: single IP injection 2 or 20 mg/kg, frontal and hind brain sections, FIG. 2
Procedure: (§1) The plasma and brain levels of the Hsp90 inhibitor KU-32 as a function of time in mice were investigated following IP or IV injection to mice. Pharmacokinetics of KU-32 levels in mouse plasma and brain was determined by LC-MS. For these studies, female Balb/c mice (6-7 weeks) were injected with either 2 or 20 mg/kg KU-32 or vehicle. Mice were sacrificed at predetermined time points and plasma was collected following cardiac puncture for determination of KU-32 levels. The animals were perfused with normal saline and the brain was harvested and homogenized. Half the brain was analyzed for KU-32 levels and the remaining half was analyzed for Hsp70 levels.
Changes in Hsp70 levels in mouse brain over time following KU-32 IP administration were determined. The ratio of Hsp70 to actin was determined in frontal and hind brain sections recovered from brains of mice at each indicated time point shown in FIG. 2 following administration of either 2 or 20 mg/kg KU-32, as discussed in Example 1. Densitometric analyses were performed, and the ratio of the Hsp70 immunoreactivity was determined using actin as a loading control.

[8] = Pharmacokinetics: plasma and brain levels of KU-32 in mice by LC-MS; format: in vivo; conditions: female Balb/c mice, 2 or 20 mg/kg, IP or IV injection, FIG. 1
Procedure: as §1

[9] = weekly 20 mg/kg IP after 8 weeks of diabetes, did not reach significance
[10] = diabetic animals receiving KU-32 compared to the diabetic mice

With `CO[C@@H]1[C@@H](O)[C@@H](O)[C@H](Oc2ccc3cc(NC(C)=O)c(=O)oc3c2C)OC1(C)C` [KU-32, N-(7-((2R,3R,4S,5R)-3,4-dihydroxy-5-methoxy-6,6-dimethyltetrahydro-2H-pyran-2-yloxy)-8-methyl-2-oxo-2H-chromen-3-yl)acetamide] the “time to improvement in thermal sensitivity” value ([1]; treatment initiated after 8 weeks of diabetes) was “evident within two weeks”, the thermal hypoalgesia ([1]; weekly 20 mg/kg IP after 8 weeks of diabetes) was “sufficient to improve thermal hypoalgesia” and the “sensory nerve conduction velocity (SNCV)” value ([1]; weekly 20 mg/kg IP after 8 weeks of diabetes, decrease observed after 15 weeks of diabetes) was “helped to improve the decrease in sensory nerve conduction velocity”. The mechanical hypoalgesia [1, 9] was “seemed to have an effect on mechanical hypoalgesia”, the “motor NCV (MNCV) deficit” value [1, 9] was “improved the pre-existing motor NCV (MNCV) deficit” and the body weights ([2]; SJL/J mice, 2, 5 or 10 mg/kg IP daily from day 12, FIG. 3) was “increase in the rate of onset and worsening of the disease”. The clinical score ([2]; SJL/J mice, 2, 5 or 10 mg/kg IP daily from day 12, FIG. 4) was “increase in the rate of onset and worsening of the disease”, the phase-solubility behavior ([3]; 0.05-0.2 M Captisol in water, at least 24 hours at 25° C., RP-HPLC) was “AP-type” and the “solubility in 0.05 M Captisol” value ([3]; 0.05 M Captisol) was “adequate solubility”. For the same molecule, the neuregulin-induced demyelination [4] was “prevent neuregulin-induced demyelination”, the clinical score ([5]; FIG. 5) was “better clinical score” and the body weight ([5]; FIG. 6) was “lost less body weight”. The body weight [6, 10] was “no differences”, the fasting blood glucose [6, 10] was “no differences” and the “onset in improvement of thermal sensitivity” value ([6]; treatment started after 12 weeks of diabetes) was 4 weeks of treatment. For the same molecule, the mechanical hypoalgesia ([6]; weekly 20 mg/kg IP after 12 weeks of diabetes, FIG. 8) was “significantly improved the mechanical hypoalgesia after 3 weeks of treatment”, the thermal hypoalgesia ([6]; weekly 20 mg/kg IP after 12 weeks of diabetes, FIG. 9) was “improved thermal hypoalgesia” and the “Hsp70 levels in mouse brain (ratio of Hsp70 to actin)” value [7] was “increased following single IP injection of KU-32 in mice over a 72-96 hour period and remained elevated”. The “KU-32 levels in mouse plasma and brain over time” value [8] was “fall below detectable limits by eight hours”.

Source: patent US20100022635A1, “Heat shock protein 90 inhibitor dosing methods” (University of Kansas, priority 2008, published 2010)
